Tested on: CD95-mediated Ca^2+ response
Assay: Calcium response to cl-CD95L in CEM cells
Format: cell-based
Settings: CEM pre-incubated 1 hr, 10 μM peptide, 100 ng/ml cl-CD95L
Method: Cells were loaded with Fura2-AM (1 μM) at resting temperature for 30 min in Hank's Balanced Salt Solution (HBSS). After washing with HBSS, the cells were incubated for 15 min in the absence of Fura2-AM to complete de-esterification of the dye. Cells were placed in a thermostated chamber (37° C.) of an inverted epifluorescence microscope (Olympus IX70) equipped with a ×40, UApo/340-1.15 W water-immersion objective (Olympus), and fluorescence micrograph images were captured at 510 nm and at 12-bit resolution by a fast-scan camera (CoolSNAP fx Monochrome, Photometrics). To minimize UV light exposure, 4×4 binning function was used. […]
T cells were loaded with Fura-PE3-AM (1 μM) at room temperature for 30 min in Hank's Balanced Salt Solution (HBSS). […] Cells were placed in the temperature controlled chamber (37° C.) of an inverted epifluorescence microscope (Olympus IX70) equipped with an ×40 UApo/340-1.15 W water-immersion objective (Olympus), and fluorescence micrograph images were captured at 510 nm and 12-bit resolution by a fast-scan camera (CoolSNAP fx Monochrome, Photometrics). […] The Fura-PE3 ratio (Fratio 340/380) images were analyzed offline with Universal Imaging software, including Metafluor and Metamorph. […] Each experiment was repeated 3 times, and the average of more than 20 single-cell traces was analyzed.

TAT-CID: cell penetrating peptide linking the 36-amino acid-stretch of CID (CD95 residues 175 to 210) to the HIV-TAT sequence; SEQ ID NO: 6 (RKKRRQRRRKRKEVQKTCRKHRKENQGSHESPTLNPETVAINLSD; TAT-CID)
calcium response to cl-CD95L: abolished the induction of the CD95-mediated Ca^2+ signal | calcium response to cl-CD95L (listed as TAT CID 175-210): completely abolished the calcium response
